“And” between values parts separate entries of the source, which are not always exact repeats. Identical values can stand only once.
These molecules were tested on Hs578T (assay: normalised viability (% of control), CellTiter-Blue; higher = more viable cells (about 100 = DMSO control)). Conditions: 1000 nM; incubation time: 72 h.
How it was run: (§1)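 After 72 h on compound-loaded 384-well plates, breast cancer cell lines received 2.5 µl CellTiter-Blue reagent for 2 h at 37 °C. Fluorescence at 560/590 nm was scaled per plate so that vehicle was 100 and a positive kill control was 0. The value stands for normalised viability at a single listed concentration of the series.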

In the case of CS(=O)(=O)CCNCc1ccc(-c2ccc3ncnc(Nc4ccc(OCc5cccc(F)c5)c(Cl)c4)c3c2)o1 [Lapatinib], the normalised viability was 93.5% and 95.4%.

Going from COC1=C2C[C@@H](C)C[C@H](OC)[C@H](O)[C@@H](C)/C=C(\C)[C@H](OC(N)=O)[C@@H](OC)/C=C\C=C(/C)C(=O)NC(=CC1=O)C2=O [Geldanamycin] to COc1cc(Nc2ncc(F)c(Nc3ccc4c(n3)NC(=O)C(C)(C)O4)n2)cc(OC)c1OC [R406], the normalised viability rises from 31.1% to 105%.

Going from c1ccc(C2CN3CCSC3=N2)cc1 (stereo unspecified) [Tetramisole] to O=P(O)(NCCCl)NCCCl [Ifosfamide mustard], the normalised viability rises from 95.5% to 102%.

Same assay, conditions: 10000 nM; incubation time: 72 h

With CS(=O)(=O)CCNCc1ccc(-c2ccc3ncnc(Nc4ccc(OCc5cccc(F)c5)c(Cl)c4)c3c2)o1 [Lapatinib] the normalised viability was 24.9% and 33.1%.

Compared with COC1=C2C[C@@H](C)C[C@H](OC)[C@H](O)[C@@H](C)/C=C(\C)[C@H](OC(N)=O)[C@@H](OC)/C=C\C=C(/C)C(=O)NC(=CC1=O)C2=O [Geldanamycin], COc1cc(Nc2ncc(F)c(Nc3ccc4c(n3)NC(=O)C(C)(C)O4)n2)cc(OC)c1OC [R406] is higher in normalised viability: 17.2% for the first, 88.4% for the second.

Compared with c1ccc(C2CN3CCSC3=N2)cc1 (stereo unspecified) [Tetramisole], O=P(O)(NCCCl)NCCCl [Ifosfamide mustard] is higher in normalised viability: 107% for the first, 112% for the second.

These molecules were tested on CAL-148 in the same assay as above. Conditions: 0.3 nM; incubation time: 72 h.
How it was run: as §1

CC(C)(C)c1cc(NC(=O)Nc2ccc(-c3cn4c(n3)sc3cc(OCCN5CCOCC5)ccc34)cc2)no1 [Quizartinib] showed a normalised viability of 98.1%.

Same assay, conditions: 3 nM; incubation time: 72 h

Going from CC(C)(C)c1cc(NC(=O)Nc2ccc(-c3cn4c(n3)sc3cc(OCCN5CCOCC5)ccc34)cc2)no1 [Quizartinib] to COc1cc(Nc2ncc(F)c(Nc3ccc4c(n3)NC(=O)C(C)(C)O4)n2)cc(OC)c1OC [R406], the normalised viability falls from 102% to 95.3%.

Going from COC1=C2C[C@@H](C)C[C@H](OC)[C@H](O)[C@@H](C)/C=C(\C)[C@H](OC(N)=O)[C@@H](OC)/C=C\C=C(/C)C(=O)NC(=CC1=O)C2=O [Geldanamycin] to c1ccc(C2CN3CCSC3=N2)cc1 (stereo unspecified) [Tetramisole], the normalised viability rises from 102% to 103%.

O=P(O)(NCCCl)NCCCl [Ifosfamide mustard] showed a normalised viability of 96.8%.

With CS(=O)(=O)CCNCc1ccc(-c2ccc3ncnc(Nc4ccc(OCc5cccc(F)c5)c(Cl)c4)c3c2)o1 [Lapatinib] the normalised viability was 92.2% and 89.8%.

Same assay, conditions: 10 nM; incubation time: 72 h

In the case of CC(C)(C)c1cc(NC(=O)Nc2ccc(-c3cn4c(n3)sc3cc(OCCN5CCOCC5)ccc34)cc2)no1 [Quizartinib], the normalised viability was 96.2%.

Same assay, conditions: 30 nM; incubation time: 72 h

With CS(=O)(=O)CCNCc1ccc(-c2ccc3ncnc(Nc4ccc(OCc5cccc(F)c5)c(Cl)c4)c3c2)o1 [Lapatinib] the normalised viability was 89.5% and 93.5%.

Going from COC1=C2C[C@@H](C)C[C@H](OC)[C@H](O)[C@@H](C)/C=C(\C)[C@H](OC(N)=O)[C@@H](OC)/C=C\C=C(/C)C(=O)NC(=CC1=O)C2=O [Geldanamycin] to COc1cc(Nc2ncc(F)c(Nc3ccc4c(n3)NC(=O)C(C)(C)O4)n2)cc(OC)c1OC [R406], the normalised viability falls from 110% to 100%.

c1ccc(C2CN3CCSC3=N2)cc1 (stereo unspecified) [Tetramisole] and O=P(O)(NCCCl)NCCCl [Ifosfamide mustard] are the same in normalised viability: 103% for the first, 103% for the second.

Same assay, conditions: 100 nM; incubation time: 72 h

In the case of CS(=O)(=O)CCNCc1ccc(-c2ccc3ncnc(Nc4ccc(OCc5cccc(F)c5)c(Cl)c4)c3c2)o1 [Lapatinib], the normalised viability was 89.3% and 83.7%.

Compared with COC1=C2C[C@@H](C)C[C@H](OC)[C@H](O)[C@@H](C)/C=C(\C)[C@H](OC(N)=O)[C@@H](OC)/C=C\C=C(/C)C(=O)NC(=CC1=O)C2=O [Geldanamycin], COc1cc(Nc2ncc(F)c(Nc3ccc4c(n3)NC(=O)C(C)(C)O4)n2)cc(OC)c1OC [R406] is lower in normalised viability: 108% for the first, 97.7% for the second.

Compared with c1ccc(C2CN3CCSC3=N2)cc1 (stereo unspecified) [Tetramisole], O=P(O)(NCCCl)NCCCl [Ifosfamide mustard] is lower in normalised viability: 125% for the first, 102% for the second.

What follows are molecules tested on DU-4475 in the same assay as above. Conditions: 0.3 nM; incubation time: 72 h.
How it was run: as §1

CC(C)(C)c1cc(NC(=O)Nc2ccc(-c3cn4c(n3)sc3cc(OCCN5CCOCC5)ccc34)cc2)no1 [Quizartinib] gave a normalised viability of 95.8%.

Same assay, conditions: 3 nM; incubation time: 72 h

Compared with CC(C)(C)c1cc(NC(=O)Nc2ccc(-c3cn4c(n3)sc3cc(OCCN5CCOCC5)ccc34)cc2)no1 [Quizartinib], COc1cc(Nc2ncc(F)c(Nc3ccc4c(n3)NC(=O)C(C)(C)O4)n2)cc(OC)c1OC [R406] is lower in normalised viability: 98.6% for the first, 96.4% for the second.

Compared with COC1=C2C[C@@H](C)C[C@H](OC)[C@H](O)[C@@H](C)/C=C(\C)[C@H](OC(N)=O)[C@@H](OC)/C=C\C=C(/C)C(=O)NC(=CC1=O)C2=O [Geldanamycin], c1ccc(C2CN3CCSC3=N2)cc1 (stereo unspecified) [Tetramisole] is lower in normalised viability: 106% for the first, 91.1% for the second.

For O=P(O)(NCCCl)NCCCl [Ifosfamide mustard], the normalised viability was 92.4%.

In the case of CS(=O)(=O)CCNCc1ccc(-c2ccc3ncnc(Nc4ccc(OCc5cccc(F)c5)c(Cl)c4)c3c2)o1 [Lapatinib], the normalised viability was 104% and 85.5%.

Same assay, conditions: 10 nM; incubation time: 72 h

In the case of CC(C)(C)c1cc(NC(=O)Nc2ccc(-c3cn4c(n3)sc3cc(OCCN5CCOCC5)ccc34)cc2)no1 [Quizartinib], the normalised viability was 93.3%.

Same assay, conditions: 30 nM; incubation time: 72 h

For CS(=O)(=O)CCNCc1ccc(-c2ccc3ncnc(Nc4ccc(OCc5cccc(F)c5)c(Cl)c4)c3c2)o1 [Lapatinib], the normalised viability was 97.9% and 96.2%.

First: COC1=C2C[C@@H](C)C[C@H](OC)[C@H](O)[C@@H](C)/C=C(\C)[C@H](OC(N)=O)[C@@H](OC)/C=C\C=C(/C)C(=O)NC(=CC1=O)C2=O [Geldanamycin]
Second: COc1cc(Nc2ncc(F)c(Nc3ccc4c(n3)NC(=O)C(C)(C)O4)n2)cc(OC)c1OC [R406]
The normalised viability of the first is higher: 113% for the first, 85.1% for the second.

Going from c1ccc(C2CN3CCSC3=N2)cc1 (stereo unspecified) [Tetramisole] to O=P(O)(NCCCl)NCCCl [Ifosfamide mustard], the normalised viability falls from 99.9% to 99.6%.

Same assay, conditions: 100 nM; incubation time: 72 h

CS(=O)(=O)CCNCc1ccc(-c2ccc3ncnc(Nc4ccc(OCc5cccc(F)c5)c(Cl)c4)c3c2)o1 [Lapatinib] was tested, and the normalised viability was 95.9% and 91.3%.

First: COC1=C2C[C@@H](C)C[C@H](OC)[C@H](O)[C@@H](C)/C=C(\C)[C@H](OC(N)=O)[C@@H](OC)/C=C\C=C(/C)C(=O)NC(=CC1=O)C2=O [Geldanamycin]
Second: COc1cc(Nc2ncc(F)c(Nc3ccc4c(n3)NC(=O)C(C)(C)O4)n2)cc(OC)c1OC [R406]
The normalised viability of the first is lower: 73.2% for the first, 91.5% for the second.

First: c1ccc(C2CN3CCSC3=N2)cc1 (stereo unspecified) [Tetramisole]
Second: O=P(O)(NCCCl)NCCCl [Ifosfamide mustard]
The normalised viability of the first is higher: 101% for the first, 95.7% for the second.
